Data on 1 compound can be found in patent publication US20250064799A1, “ORAL FORMULATIONS OF LEVOSIMENDAN FOR TREATING PULMONARY HYPERTENSION WITH HEART FAILURE WITH PRESERVED EJECTION FRACTION” (Tenax Therapeutics, Inc., priority 2021, published 2025).

Holding throughout (type): in vivo, human
Series [1] deals with patients with PH-HFpEF. The series is described as follows: Adverse events, tolerability and final dose, I.V. to oral levosimendan transition study. As to conditions: for SAEs attributed/related to study drug: 6-8 week transition. The source says:
(§1) The following considerations justified amending the TNX-LVO-05 study protocol: • 1. The amended TNX-LVO-05 protocol included the same patients enrolled in the original study. This was not a new study of the patients currently enrolled. This was open label, with no blinding of patients or physicians, and no control group. • 2. The scope and purpose of the study was unchanged, with the exception that it offered the further extension of treatment allowed by the transition to oral therapy (See item #4). • 3. The amendment clearly delineated a stepwise and thoughtful titration of patients from their intravenous to oral levosimendan to ensure the safe and effective transition of their levosimendan regimen. • a. Patients were started on 1 mg daily, representing a dose generally less than half their total weekly weight-based dose regimen. • b. Patients were titrated based on tolerance to the daily levosimendan paying attention to their symptoms of PH-HFpEF, and special attention to specific adverse events of interest, heart rate and blood pressure. A daily diary captured patient vitals and symptoms to aid their physician in titrating patients at two-week intervals. • c. Patient response also was evaluated by clinical measures to provide the physician with additional information on the patient's response. • d. While most patients were expected to receive 2-3 mg daily at the conclusion of the transition study, the dose escalation strategy was included to allow all patients to realize the same benefit as they did from the I.V. formulation. • e. To document the sustained efficacy of the oral formulation in these patients, patients had to undergo a six-minute walk test and patient questionnaire prior to and at the end of the transition study. • 4. The transition to oral levosimendan allowed for extension of the study from its initial two years to an additional three years. This offers these PH-HFpEF patients, with no other treatments available, to continue on a drug that they have responded to. • 5. The amendment required patients to sign a revised informed consent to ensure patients are completely informed concerning the transition amendment. Patients that preferred to continue with their weekly 24-hour I.V. regimen were allowed to continue through the initial two-year period of the study and then will be withdrawn.
Methods: Patients with PH-HFpEF who were in the open label extension study of the HELP Trial for more than 18 months volunteered to enroll in this transition protocol. Patients were initiated with 1 mg/day of oral levosimendan 5-7 days after the last IV levosimendan infusion. The oral dose was increased every 2 weeks by 1 mg/day to a maximum of 4 mg/day over an 8 week period. The highest daily dose was determined by the investigator based on clinical assessments of symptoms and side effects. The primary safety endpoints were change in resting heart rate and blood pressure from baseline to final study visit and all other adverse events. Secondary efficacy endpoints included change in six-minute walk distance (6MWD), serum brain natriuretic peptide (BNP) or NT-proBNP levels, and quality of life as assessed by Kansas City Cardiomyopathy Questionnaire clinical summary score (KCCQ-CS) and overall summary score (KCCQ-OS) from baseline to final study visit. All comparisons were the baseline and at week 6-8 measurements at the highest daily dose of levosimendan. […]

The subject of series [2] is patients with PH-HFpEF. The series is described as follows: Six-minute walk test (6MWT/6MWD), I.V. to oral levosimendan transition study (TNX-LVO-05 open label extension of HELP).
From the text: The initial HELP Study is described in PCT International Application Publication No. WO 2021/126884 and Burkhoff, et al. (2021) “Levosimendan improves hemodynamics and exercise tolerance in PH-HFpEF: results of the randomized placebo-controlled HELP trial,” the entire contents of each of which are incorporated by reference. […] Among the goals of the extension study was to determine the dose of oral levosimendan that could maintain the efficacy of the weekly I.V. infusions of levosimendan.
Once that dose is determined, the study is identical with respect to the protocol. Since the I.V. formulation is weight based, and bypasses issues of bioavailability that may be affected by drug absorption, a dose escalation strategy is being adopted, guided by the individual patient response and any adverse events that may occur. Thus, the measurement of a six-minute walk test and patient questionnaire before and after the transition was to ensure that the patient continues to benefit. In addition, the monitoring of the patients' blood pressure and heart rate each day was to ensure that the oral dose remains safe.
as §1
Methods: Patients with PH-HFpEF who were in the open label extension study of the HELP Trial for more than 18 months volunteered to enroll in this transition protocol. Patients were initiated with 1 mg/day of oral levosimendan 5-7 days after the last IV levosimendan infusion. The oral dose was increased every 2 weeks by 1 mg/day to a maximum of 4 mg/day over an 8 week period. The highest daily dose was determined by the investigator based on clinical assessments of symptoms and side effects. […]

Series [3] deals with patients with PH-HFpEF. The series is described as follows: TNX-LVO-05 open-label extension, weekly 24-hour I.V. levosimendan: 6MWT and HR. The arrangement: TNX-LVO-05 (WK 24/48) 6MWT: unit not given beside the values. As to conditions: individual patients, week 24/48. The source says: PH-HFpEF is a progressive, fatal disease for which there are no approved therapies. All patients that the 6-week parent TNX-LVO-04 study (also referred to as the initial Help Study) underwent assessments of safety and efficacy in a double-blind randomized protocol. […] For these reasons, all participating patients were allowed to enter an open-label extension study (also referred to as TNX-LVO-05), to provide ongoing levosimendan therapy for two additional years.
The efficacy of the once weekly levosimendan regimen is supported by an active metabolite with an extended half-life of 70-80 hours. The metabolite peaks approximately two days after completing the weekly dose, declining through the remainder of the week. Data from the parent TNX-LVO-04 study indicate patients' response to therapy peaks early in the week, followed by a decline in keeping with exposure to the active metabolite. Patients that entered TNX-LVO-05 were required to undergo the insertion of a port-a-cath, learn how to self-administer the levosimendan infusion through a port-a-cath at home, and weekly administer IV levosimendan through their port-a-cath for 24 hours. It is important to note that patients who entered TNX-LVO-05 have chosen to continue their 24-hour weekly levosimendan dose regimen, acknowledging that patients recognize the benefits of the drug.

The mark [4] stands for this setting: individual patients transitioned from weekly I.V. to oral levosimendan.

Where “and” joins values, the source holds several entries; their conditions need not be identical. Identical values can stand only once. Entries after “also recorded” stand apart in the source; their conditions may differ.

Consider `C[C@@H]1CC(=O)NN=C1c1ccc(NN=C(C#N)C#N)cc1` [levosimendan], for which the “tolerability of transition to oral levosimendan” value with patients with PH-HFpEF [1] (6-8-week period, after >18 months of IV levosimendan) is on record as “well tolerated without safety concerns”. The other adverse events result in the series on patients with PH-HFpEF [1] (18 patients, oral levosimendan) is on record as “No other adverse events”. For the same compound, the “serious adverse event not related to study drug” value in the series on patients with PH-HFpEF [1] (18 patients, oral levosimendan, listed as study drug) was “One patient experienced a serious adverse event (SAE) unrelated to study drug; also recorded: One patient had a serious adverse event not related to the study drug”. The “SAEs attributed/related to study drug” value in the series on patients with PH-HFpEF [1] (oral levosimendan) is on record as “no SAEs related”. Moreover, the “SAEs attributed/related to study drug” value in the series on patients with PH-HFpEF [1] (oral levosimendan, listed as study drug) is listed as “no SAEs were reported”. In the series with patients with PH-HFpEF [2] (setting [4]), the “6MW Change (BL vs Week 6 only)” value was −137 and 78 and −27 and 118 and −10 and −4 and 5 and −9 and −8 and 9 and −17 and 40 and 30 (2×) and 15 and −1; the “6MW Change (Baseline vs Week 6/8)” value is −15 and 78 and −27 and −10 and −31 and −4 and 24 and −23 and −112 and 9 and −17 and 30 (3×) and −1. For the same compound, in the series with patients with PH-HFpEF [2] (n=16), the “6MWD Change from baseline to Week 6 - Oral, Maximum” value is reported as 118; the “6MWD Change from baseline to Week 6 - Oral, Median” value is on record as 2.0; the “6MWD Change from baseline to Week 6 - Oral, Minimum” value is on record as −137. In addition, in the series on patients with PH-HFpEF [2] (n=16, oral levosimendan), the 6MWD Week 6 - Oral, Maximum is 550 m; the “6MWD Week 6 - Oral, Mean” value worked out at 302.0; the “6MWD Week 6 - Oral, Median” value amounted to 292.0; the “6MWD Week 6 - Oral, Minimum” value was 91. The “mean change in 6MWD” value in the series with patients with PH-HFpEF [2] (n=17, baseline to final study visit, oral levosimendan) is 13.1 (SD±39.5) meters. The “improvement in six minute walk distance” value in the series on patients with PH-HFpEF [2] (oral levosimendan compared to weekly I.V. infusion) was determined as 32%. In addition, in the series with patients with PH-HFpEF [3], the “TNX-LVO-05 (WK 24/48) 6MWT” value was 310 and 180 and 312 and 255 and 347 and 393 and 313 and 91 and 274 and 213 and 225 and 174 and 590; the “TNX-LVO-05 (WK 24/48) HR” value is 62 (3×) and 64 and 85 (2×) and 70 and 69 and 74 and 58 and 73 and 82 and 75 and 87 and 65 and 78 and 77 and 91.
